Experimental data reported in patent US9029386B2, “Pyridine derivatives useful as kinase inhibitors” (YM Biosciences Australia Pty Ltd, priority 2006, dated 2015).
pIC50: −log10 of the molar value.

How the values were obtained:
KDR protein kinase = molecular target: T1, KDR protein kinase (Homo sapiens, UniProt P35968); experiment: Alphascreen protein tyrosine kinase assay, KDR; format: biochemical
T1 construct: purchased Millipore 14-630M
Protocol: (§1) For screening purposes, compounds were diluted in 96 well plates at a concentration of 20 μM. Plates were warmed at 37° C. for 30 minutes before assay.
FLT-3 and PDGFR β tyrosine kinase enzymes were purchased from Upstate Cell Signalling Solutions, CA, USA (flt-3 catalog #: 14-500 and PDGFR β catalog #: 14-463). KDR protein kinase enzyme was purchased from Millipore (catalogue #14-630M).
Kinase assays were performed in 384 well Optiplates (Packard) using an Alphascreen Protein Tyrosine Kinase kit. […] The biotinylated peptides Biotin-[…]-NH2 for c-KIT and PDGFRβ and Biotin-[…]-NH2 for CSF1-R and FLT-3 (final concentration 0.1-3 μM) were used as substrates. Alphascreen phosphotyrosine acceptor beads followed by streptavidin donor beads were added under subdued light. The Alphascreen plates were read on a Packard Fusion Alpha. Inhibitors were added to the assays thirty minutes prior to the addition of ATP. Inhibitors were added in aqueous DMSO, with DMSO concentrations never exceeding 1%.

PDGFR β tyrosine kinase = molecular target: T2, PDGFR β tyrosine kinase (Homo sapiens, UniProt P09619); experiment: Alphascreen protein tyrosine kinase assay, PDGFRβ; format: biochemical
T2 construct: purchased Upstate Cell Signalling Solutions, CA, USA 14-463

cSRC(h) = molecular target: T3, cSRC(h) (Homo sapiens, UniProt P12931); experiment: KinaseProfiler assay (Upstate), cSRC; format: biochemical
T3 construct: purchased Upstate Biotechnology (Dundee, UK), KinaseProfiler service
T3 sequence (P12931 whole entry): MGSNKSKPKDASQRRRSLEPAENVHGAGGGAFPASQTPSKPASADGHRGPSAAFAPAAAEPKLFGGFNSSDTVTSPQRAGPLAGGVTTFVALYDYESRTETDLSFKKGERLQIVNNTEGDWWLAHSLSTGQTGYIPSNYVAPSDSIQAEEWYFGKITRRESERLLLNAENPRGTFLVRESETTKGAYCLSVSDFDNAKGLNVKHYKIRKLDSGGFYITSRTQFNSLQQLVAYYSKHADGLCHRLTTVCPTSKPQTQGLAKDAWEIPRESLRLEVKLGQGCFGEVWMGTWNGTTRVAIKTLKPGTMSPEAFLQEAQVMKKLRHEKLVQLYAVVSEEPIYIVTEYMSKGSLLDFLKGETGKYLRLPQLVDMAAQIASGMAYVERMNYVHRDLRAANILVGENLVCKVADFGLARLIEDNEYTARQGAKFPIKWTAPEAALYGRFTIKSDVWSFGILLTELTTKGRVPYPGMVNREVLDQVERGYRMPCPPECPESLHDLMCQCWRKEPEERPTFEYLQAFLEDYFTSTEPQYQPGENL
Protocol: (§2) Further enzyme assays were conducted at Upstate Biotechnology (Dundee, UK) in the KinaseProfiler™ Assay system.
(§3) The general protocol is as follows. All kinases are pre-diluted to a 10× working concentration prior to addition into the assay. The composition of the dilution buffer for the kinases is 20 mM MOPS pH 7.0, 1 mM EDTA, 0.1% β-mercaptoethanol, 0.01% Brij-35, 5% glycerol, 1 mg/ml BSA. All substrates are dissolved and diluted to working stocks in de-ionised water.

EphA2(h) = molecular target: T4, EphA2(h) (Homo sapiens, UniProt P29317); experiment: KinaseProfiler assay (Upstate), EphA2; format: biochemical
T4 construct: purchased Upstate Biotechnology (Dundee, UK), KinaseProfiler service
T4 sequence (P29317 24-976): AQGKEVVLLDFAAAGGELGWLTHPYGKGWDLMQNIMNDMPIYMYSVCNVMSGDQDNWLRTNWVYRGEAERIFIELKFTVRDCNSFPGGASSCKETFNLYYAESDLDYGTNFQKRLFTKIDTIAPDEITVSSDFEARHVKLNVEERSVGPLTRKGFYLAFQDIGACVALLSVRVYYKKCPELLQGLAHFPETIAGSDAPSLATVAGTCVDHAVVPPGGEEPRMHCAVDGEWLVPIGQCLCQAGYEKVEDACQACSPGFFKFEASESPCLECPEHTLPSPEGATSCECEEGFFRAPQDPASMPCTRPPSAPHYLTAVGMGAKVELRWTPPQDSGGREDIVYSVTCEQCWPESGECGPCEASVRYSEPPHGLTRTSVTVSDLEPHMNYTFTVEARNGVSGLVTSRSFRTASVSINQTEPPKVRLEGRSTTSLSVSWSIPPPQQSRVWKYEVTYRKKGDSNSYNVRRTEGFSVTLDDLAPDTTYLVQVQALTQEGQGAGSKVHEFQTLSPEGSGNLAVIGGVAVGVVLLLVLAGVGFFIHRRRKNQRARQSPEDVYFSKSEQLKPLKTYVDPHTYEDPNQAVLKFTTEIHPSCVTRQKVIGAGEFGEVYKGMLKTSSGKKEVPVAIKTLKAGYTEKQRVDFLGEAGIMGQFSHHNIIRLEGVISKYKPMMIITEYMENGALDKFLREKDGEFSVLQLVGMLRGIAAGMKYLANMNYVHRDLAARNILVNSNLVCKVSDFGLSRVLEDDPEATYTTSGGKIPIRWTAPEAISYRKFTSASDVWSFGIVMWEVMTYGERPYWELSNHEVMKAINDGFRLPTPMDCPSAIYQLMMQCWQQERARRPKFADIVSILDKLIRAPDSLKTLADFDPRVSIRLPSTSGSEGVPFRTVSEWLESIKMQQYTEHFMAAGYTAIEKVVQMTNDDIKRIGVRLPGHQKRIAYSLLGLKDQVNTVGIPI
Protocol: as §2, §3
(§4) In a final reaction volume of 25 EphA2 (h) (5-10 mU) is incubated with 8 mM MOPS pH 7.0, 0.2 mM EDTA, 0.1 mg/ml poly(Glu, Tyr) 4:1, 10 mM MgAcetate and [γ-33P-ATP] (specific activity approx. 500 cpm/pmol, concentration as required). The reaction is initiated by the addition of the MgATP mix. After incubation for 40 minutes at room temperature, the reaction is stopped by the addition of 5 μl of a 3% phosphoric acid solution. 10 μl of the reaction is then spotted onto a Filtermat A and washed three times for 5 minutes in 75 mM phosphoric acid and once in methanol prior to drying and scintillation counting.

[1] = molecular target: T5, kinase domain of human c-kit (Homo sapiens, UniProt P10721); experiment: Alphascreen protein tyrosine kinase assay, c-KIT; format: biochemical
T5 construct: from codon M552 to end; made in house; host or cells: Sf9 insect cells (baculovirus)
T5 sequence (P10721 552-976 limits assumed): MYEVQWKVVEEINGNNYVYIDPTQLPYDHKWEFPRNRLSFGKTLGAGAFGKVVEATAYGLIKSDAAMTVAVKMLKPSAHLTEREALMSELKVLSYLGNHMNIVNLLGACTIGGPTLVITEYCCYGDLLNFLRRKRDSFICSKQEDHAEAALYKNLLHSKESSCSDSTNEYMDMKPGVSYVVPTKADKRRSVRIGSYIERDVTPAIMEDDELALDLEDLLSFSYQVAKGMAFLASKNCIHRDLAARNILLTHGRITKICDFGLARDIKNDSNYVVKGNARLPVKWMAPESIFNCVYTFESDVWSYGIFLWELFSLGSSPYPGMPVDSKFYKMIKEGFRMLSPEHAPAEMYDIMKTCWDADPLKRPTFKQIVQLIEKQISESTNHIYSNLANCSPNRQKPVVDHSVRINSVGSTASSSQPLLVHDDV
Protocol: as §1
The kinase domain of human c-kit from codon M552 to end was cloned into the pDEST-20 expression vector (Invitrogen). The c-kit plasmid was then transformed into competent DH10Bac cells (Gibco), and the recombinant baculovirus produced prepared for transfection into Sf9 insect cells.
Baculovirus preparations from each of construct were infected into five liters of SF9 cells (Invitrogen) grown in SF-900 medium (Invitrogen) to a cell density of approximately 1−2×10^6 cells/ml. […] Cells were harvested and lysed. Tyrosine kinase domains were purified by affinity chromatography on a glutathione-agarose column (Scientifix Pty. Ltd. catalog #: GSH-200).
Kinase assays were performed in 384 well Optiplates (Packard) using an Alphascreen Protein Tyrosine Kinase kit. […] Alphascreen phosphotyrosine acceptor beads followed by streptavidin donor beads were added under subdued light. The Alphascreen plates were read on a Packard Fusion Alpha. Inhibitors were added to the assays thirty minutes prior to the addition of ATP. Inhibitors were added in aqueous DMSO, with DMSO concentrations never exceeding 1%.

Baf3-WT = experiment: Cellular assay (Alamar Blue), Baf3-WT with mouse IL-3; format: cell-based; settings: mouse IL-3 at 5 ng/ml, 72 hr
Protocol: Cells for the assays were prepared by harvesting cells from culture, and then diluting them in the appropriate growth medium to between 40,000 cell/mL and 600,000 cell/mL, depending on the cell line.
The compounds to be tested were added (104, 10× final concentration) to a flat bottomed 96-well plate. The cellular suspension (80 μL per well) was added, and one hour later the growth factor was added (human M-CSF at 20 ng/ml for mNFS-60, mouse IL-3 at 5 ng/ml for Baf3-WT). The plate was then incubated for 72 hr at 37° C., 5% CO2. Alamar Blue (10^4 per well) was added and the plates returned to the incubator for a further 4-8 hours.
The plates were then read using a fluorescence plate reader at excitation 544 nm and emission 590 nm.

Flt1(h) = molecular target: T6, Flt1(h) (Homo sapiens, UniProt P17948); experiment: KinaseProfiler assay (Upstate), Flt1; format: biochemical
T6 construct: purchased Upstate Biotechnology (Dundee, UK), KinaseProfiler service
T6 sequence (P17948 27-1338): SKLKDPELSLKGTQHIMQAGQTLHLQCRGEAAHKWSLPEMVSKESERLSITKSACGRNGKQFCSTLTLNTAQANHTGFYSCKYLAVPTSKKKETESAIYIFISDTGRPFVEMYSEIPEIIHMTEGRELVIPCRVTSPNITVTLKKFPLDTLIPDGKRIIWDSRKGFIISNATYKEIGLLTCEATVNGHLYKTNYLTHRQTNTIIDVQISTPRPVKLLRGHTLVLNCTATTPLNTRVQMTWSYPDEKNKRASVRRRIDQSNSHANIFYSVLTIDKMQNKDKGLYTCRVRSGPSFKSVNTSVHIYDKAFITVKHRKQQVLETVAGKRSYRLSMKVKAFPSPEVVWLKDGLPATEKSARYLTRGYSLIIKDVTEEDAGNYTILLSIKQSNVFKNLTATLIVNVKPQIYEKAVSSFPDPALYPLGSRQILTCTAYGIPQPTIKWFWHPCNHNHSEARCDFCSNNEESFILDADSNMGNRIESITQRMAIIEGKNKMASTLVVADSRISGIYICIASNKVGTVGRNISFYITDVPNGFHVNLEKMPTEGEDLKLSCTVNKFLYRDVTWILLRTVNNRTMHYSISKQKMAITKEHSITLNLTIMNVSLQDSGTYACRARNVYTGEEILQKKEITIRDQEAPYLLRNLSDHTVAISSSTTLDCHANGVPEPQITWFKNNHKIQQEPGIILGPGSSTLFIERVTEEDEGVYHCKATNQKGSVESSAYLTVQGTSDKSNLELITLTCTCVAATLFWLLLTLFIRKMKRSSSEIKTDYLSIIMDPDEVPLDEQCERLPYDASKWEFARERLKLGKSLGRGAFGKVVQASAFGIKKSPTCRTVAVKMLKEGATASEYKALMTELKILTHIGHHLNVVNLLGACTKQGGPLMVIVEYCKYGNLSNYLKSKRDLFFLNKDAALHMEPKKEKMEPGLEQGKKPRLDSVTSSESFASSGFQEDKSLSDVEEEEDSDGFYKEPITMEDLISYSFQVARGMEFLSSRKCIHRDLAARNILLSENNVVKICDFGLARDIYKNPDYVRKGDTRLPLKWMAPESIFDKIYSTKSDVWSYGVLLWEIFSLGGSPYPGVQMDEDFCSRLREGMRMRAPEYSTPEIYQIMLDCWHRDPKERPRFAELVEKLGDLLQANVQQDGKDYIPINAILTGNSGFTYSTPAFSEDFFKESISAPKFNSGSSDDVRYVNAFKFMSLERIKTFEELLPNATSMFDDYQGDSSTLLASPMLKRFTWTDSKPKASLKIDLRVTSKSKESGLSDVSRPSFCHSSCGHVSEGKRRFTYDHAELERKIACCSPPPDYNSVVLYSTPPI
Protocol: as §2, §3
as §4, with “Flt1” for “EphA2”, “250 μM […],” for “0.1 mg/ml poly(Glu, Tyr) 4:1,”, “P30 filtermat” for “Filtermat A”

Flt4(h) = molecular target: T7, Flt4(h) (Homo sapiens, UniProt P35916); experiment: KinaseProfiler assay (Upstate), Flt4; format: biochemical
T7 construct: purchased Upstate Biotechnology (Dundee, UK), KinaseProfiler service
T7 sequence (P35916 25-1363): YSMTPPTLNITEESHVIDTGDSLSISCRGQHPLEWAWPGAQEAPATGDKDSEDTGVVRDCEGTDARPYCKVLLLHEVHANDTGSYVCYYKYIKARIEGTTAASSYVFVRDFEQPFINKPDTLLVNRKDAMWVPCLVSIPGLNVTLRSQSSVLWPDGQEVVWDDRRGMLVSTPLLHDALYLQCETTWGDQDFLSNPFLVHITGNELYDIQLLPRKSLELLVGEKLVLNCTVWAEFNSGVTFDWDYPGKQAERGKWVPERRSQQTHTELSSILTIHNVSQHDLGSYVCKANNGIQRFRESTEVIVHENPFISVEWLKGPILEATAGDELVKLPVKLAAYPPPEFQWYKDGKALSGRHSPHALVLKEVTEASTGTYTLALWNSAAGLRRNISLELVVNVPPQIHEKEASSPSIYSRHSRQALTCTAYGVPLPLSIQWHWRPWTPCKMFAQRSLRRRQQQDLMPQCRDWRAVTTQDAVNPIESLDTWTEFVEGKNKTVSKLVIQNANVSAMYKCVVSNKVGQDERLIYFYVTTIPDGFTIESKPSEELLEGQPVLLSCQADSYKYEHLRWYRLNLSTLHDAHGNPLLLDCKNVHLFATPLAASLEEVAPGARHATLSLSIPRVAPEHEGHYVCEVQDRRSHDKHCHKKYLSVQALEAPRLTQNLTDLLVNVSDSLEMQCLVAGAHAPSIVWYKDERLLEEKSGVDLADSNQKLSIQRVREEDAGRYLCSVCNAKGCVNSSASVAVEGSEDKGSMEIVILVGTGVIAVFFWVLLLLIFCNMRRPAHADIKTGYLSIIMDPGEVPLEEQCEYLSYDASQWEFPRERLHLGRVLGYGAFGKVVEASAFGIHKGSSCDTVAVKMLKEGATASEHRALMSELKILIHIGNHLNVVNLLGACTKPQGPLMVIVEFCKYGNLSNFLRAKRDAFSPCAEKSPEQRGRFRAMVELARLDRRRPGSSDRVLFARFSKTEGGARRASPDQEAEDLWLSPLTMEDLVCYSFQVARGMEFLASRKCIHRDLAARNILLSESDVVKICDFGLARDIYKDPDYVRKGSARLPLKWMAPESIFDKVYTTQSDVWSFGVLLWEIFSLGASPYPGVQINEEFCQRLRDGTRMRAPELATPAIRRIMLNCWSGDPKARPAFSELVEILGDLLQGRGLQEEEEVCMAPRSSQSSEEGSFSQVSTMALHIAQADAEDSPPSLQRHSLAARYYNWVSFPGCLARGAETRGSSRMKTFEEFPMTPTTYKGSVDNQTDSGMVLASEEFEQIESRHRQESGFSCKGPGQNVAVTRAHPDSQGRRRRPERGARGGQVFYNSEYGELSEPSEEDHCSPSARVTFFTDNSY
Protocol: as §2, §3

| pIC50 (KDR protein kinase) | pIC50 (PDGFR β tyrosine kinase) | inhibition at 0.1 µM (cSRC(h)) [%] | inhibition at 1 µM (cSRC(h)) [%] | inhibition at 0.1 µM (EphA2(h)) [%] | inhibition at 1 µM (EphA2(h)) [%] | pIC50 [1] | pIC50 (Baf3-WT) | inhibition at 0.1 µM (Flt1(h)) [%] | inhibition at 1 µM (Flt1(h)) [%] | inhibition at 0.1 µM (Flt4(h)) [%] | inhibition at 1 µM (Flt4(h)) [%] | Compound |
| --- | --- | --- | --- | --- | --- | --- | --- | --- | --- | --- | --- | --- |
| > 7.00 | > 6.00 | 23 | 74 | 87 | 102 | > 7.00 | < 5.00 | 98 | 100 | 98 | 97 | Cc1cccc(C(=O)Nc2cccc([C@H](C)Nc3cncc(-c4ccc(S(N)(=O)=O)cc4)n3)c2)c1 [Compound 77] |
| > 7.00 | > 7.00 | 24 | 80 | 96 | 101 | > 6.00 | < 5.00 | 85 | 99 | 92 | 99 | C[C@H](Nc1cncc(Cl)n1)c1cccc(NC(=O)c2cccc(C(F)(F)F)c2)c1 [Compound 114, (S)—N-(3-(1-(6-chloropyrazin-2-ylamino)ethyl)phenyl)-3-(trifluoromethyl)benzamide] |
| > 7.00 | > 7.00 | 38 | 85 | 24 | 93 | > 7.00 | > 5.00 | 96 | 100 | 100 | 100 | Cc1cccc(C(=O)Nc2cccc([C@H](C)Nc3cncc(-c4ccc(N5CCN(C)CC5)cc4)n3)c2)c1 [Compound 129] |
| > 7.00 | > 7.00 | 1 | 14 | 69 | 99 | > 7.00 | < 5.00 | 92 | 99 | 95 | 100 | Cc1cccc(C(=O)Nc2cccc([C@H](C)Nc3cncc(C(N)=O)n3)c2)c1 [Compound 133, (S)-6-(1-(3-(3-methylbenzamido)phenyl)ethylamino)pyrazine-2-carboxamide] |
| > 7.00 | > 7.00 | 14 | 65 | 80 | 99 | > 7.00 | > 5.00 | 90 | 96 | 95 | 99 | Cc1cccc(C(=O)Nc2cccc([C@H](C)Nc3cncc(-n4ccnc4)n3)c2)c1 [Compound 143, (S)—N-(3-(1-(6-(1H-imidazol-1-yl)pyrazin-2-ylamino)ethyl)phenyl)-3-methylbenzamide] |
| > 7.00 | > 7.00 | 45 | 87 | 97 | 102 | > 7.00 | < 5.00 | 95 | 100 | 100 | 99 | Cc1cccc(C(=O)Nc2cccc([C@H](C)Nc3cncc(-c4cccc(N5CCOCC5)c4)n3)c2)c1 [Compound 147] |
| > 7.00 | > 7.00 | 86 | 96 | 93 | 102 | > 7.00 | > 5.00 | 92 | 99 | 96 | 99 | C[C@H](Nc1cncc(-c2ccc(N3CCN(C)CC3)cc2)n1)c1cccc(NC(=O)c2cccc(C(F)(F)F)c2)c1 [Compound 148] |
| > 7.00 | > 7.00 | 69 | 96 | 96 | 102 | > 6.00 | < 5.00 | 56 | 99 | 96 | 99 | C[C@H](Nc1cncc(-c2cccc(N3CCOCC3)c2)n1)c1cccc(NC(=O)c2cccc(C(F)(F)F)c2)c1 [Compound 149] |
|  |  | 53 | 95 | 102 | 103 |  |  | 91 | 100 | 96 | 97 | Cc1cccc(C(=O)Nc2ccc(C)c([C@H](C)Nc3cncc(Cl)n3)c2)c1 [Compound 168] |
